The values that follow come from patent US20170022171A1, “2,5-DISUBSTITUTED CYCLOPENTANECARBOXYLIC ACIDS AND THEIR USE” (Bayer Pharma Aktiengesellschaft, priority 2014, published 2017).

Common to all, as to type: biochemical
The target in one experiment is T1, MMP-9 (Homo sapiens, UniProt P14780).
T1 construct: purchased R&D Systems 911-MP
Nature of the experiment: In vitro MMP-9 inhibition test. The procedure, abridged: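 Recombinant MMP-9 was APMA-activated and used at e.g. 0.1 nM final in 50 mM Tris/HCl pH 7.5, 10 mM CaCl2, 150 mM NaCl, 0.05% Brij-35, with compound at e.g. 1 nM to 30 μM. Quenched Mca-Pro-Leu-Gly-Leu-Dpa(Dnp)-Ala-Arg-NH2 substrate (e.g. 10 μM) was followed by fluorescence (ex 320/em 410 nm), e.g. 120 min at 32 °C. IC50 corresponds to 50% signal.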

Another experiment deals with T2, MMP-7 (Homo sapiens, UniProt P09237).
T2 construct: purchased R&D Systems 907-MP
T2 sequence (P09237 95-267): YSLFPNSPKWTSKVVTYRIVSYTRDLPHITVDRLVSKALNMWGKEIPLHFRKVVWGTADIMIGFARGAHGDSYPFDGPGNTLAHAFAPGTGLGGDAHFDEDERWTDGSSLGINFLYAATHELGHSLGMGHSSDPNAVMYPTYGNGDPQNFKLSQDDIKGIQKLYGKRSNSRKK
Nature of the experiment: In vitro MMP-7 inhibition test. The procedure, abridged:
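APMA-activated recombinant MMP-7 (e.g. 0.5 nM final) in Tris/HCl pH 7.5 with CaCl2, NaCl and Brij-35; started with quenched fluorogenic Mca-PLGL-Dpa(Dnp)-AR-NH2 substrate (e.g. 10 μM final). Fluorescence (ex 320/em 410 nm) followed e.g. over 120 min at 32° C; IC50 is the concentration giving 50% signal.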

A further experiment has as its target T3, MMP-2 (Homo sapiens, UniProt P08253).
T3 construct: purchased R&D Systems 902-MP
T3 sequence (P08253 110-660): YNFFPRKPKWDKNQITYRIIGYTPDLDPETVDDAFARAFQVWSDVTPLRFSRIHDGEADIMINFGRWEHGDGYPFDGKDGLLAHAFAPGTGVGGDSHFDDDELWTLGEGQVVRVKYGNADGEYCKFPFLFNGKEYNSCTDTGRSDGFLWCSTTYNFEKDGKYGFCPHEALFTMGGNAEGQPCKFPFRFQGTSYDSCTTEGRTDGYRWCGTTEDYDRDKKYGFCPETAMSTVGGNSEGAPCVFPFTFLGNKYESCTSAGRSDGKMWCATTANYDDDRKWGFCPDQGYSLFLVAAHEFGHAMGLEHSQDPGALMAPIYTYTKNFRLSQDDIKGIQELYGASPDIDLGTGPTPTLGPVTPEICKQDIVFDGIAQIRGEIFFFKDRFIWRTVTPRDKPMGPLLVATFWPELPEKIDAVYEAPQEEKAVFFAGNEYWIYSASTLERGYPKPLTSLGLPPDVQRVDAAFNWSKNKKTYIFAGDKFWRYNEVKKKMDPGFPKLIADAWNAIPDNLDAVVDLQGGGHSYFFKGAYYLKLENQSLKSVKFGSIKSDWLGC
As to the kind of experiment: In vitro MMP-2 inhibition test. The procedure, abridged:
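APMA-activated recombinant MMP-2 (final e.g. 2 nM) in 50 mM Tris/HCl pH 7.5, 10 mM CaCl2, 150 mM NaCl, 0.05% Brij-35, with compound in DMSO. Started with quenched Mca-PLGL-Dpa(Dnp)-AR-NH2 (e.g. 10 μM); fluorescence (ex 320/em 410 nm) followed e.g. 120 min at 32° C.; IC50 at 50% signal.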

A further experiment concerns the target T4, MMP-10 (Homo sapiens, UniProt P09238).
T4 construct: purchased R&D Systems 910-MP
Nature of the experiment: In vitro MMP-10 inhibition test. The procedure, abridged: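 APMA-activated recombinant MMP-10 (final e.g. 2 nM) with quenched Mca-Arg-Pro-Lys-Pro-Val-Glu-Nval-Trp-Arg-Lys(Dnp)-NH2 substrate (final e.g. 10 μM) in 50 mM Tris/HCl pH 7.5, 10 mM CaCl2, 150 mM NaCl, 0.05% Brij-35. Fluorescence (ex 320/em 410 nm) followed e.g. 120 min at 32 °C. IC50 at 50% signal.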

T4 sequence (P09238 99-476): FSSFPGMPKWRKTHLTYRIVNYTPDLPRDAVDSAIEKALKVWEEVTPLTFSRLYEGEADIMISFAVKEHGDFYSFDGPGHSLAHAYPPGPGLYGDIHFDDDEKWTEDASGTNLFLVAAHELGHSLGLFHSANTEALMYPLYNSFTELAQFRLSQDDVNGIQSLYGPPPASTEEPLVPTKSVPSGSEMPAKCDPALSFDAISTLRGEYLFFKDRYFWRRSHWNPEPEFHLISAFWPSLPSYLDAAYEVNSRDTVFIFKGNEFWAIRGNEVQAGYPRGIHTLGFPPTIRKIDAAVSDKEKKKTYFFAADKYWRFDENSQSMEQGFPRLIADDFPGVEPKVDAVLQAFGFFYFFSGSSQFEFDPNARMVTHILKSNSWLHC
T1 sequence (P14780 107-707 limits assumed): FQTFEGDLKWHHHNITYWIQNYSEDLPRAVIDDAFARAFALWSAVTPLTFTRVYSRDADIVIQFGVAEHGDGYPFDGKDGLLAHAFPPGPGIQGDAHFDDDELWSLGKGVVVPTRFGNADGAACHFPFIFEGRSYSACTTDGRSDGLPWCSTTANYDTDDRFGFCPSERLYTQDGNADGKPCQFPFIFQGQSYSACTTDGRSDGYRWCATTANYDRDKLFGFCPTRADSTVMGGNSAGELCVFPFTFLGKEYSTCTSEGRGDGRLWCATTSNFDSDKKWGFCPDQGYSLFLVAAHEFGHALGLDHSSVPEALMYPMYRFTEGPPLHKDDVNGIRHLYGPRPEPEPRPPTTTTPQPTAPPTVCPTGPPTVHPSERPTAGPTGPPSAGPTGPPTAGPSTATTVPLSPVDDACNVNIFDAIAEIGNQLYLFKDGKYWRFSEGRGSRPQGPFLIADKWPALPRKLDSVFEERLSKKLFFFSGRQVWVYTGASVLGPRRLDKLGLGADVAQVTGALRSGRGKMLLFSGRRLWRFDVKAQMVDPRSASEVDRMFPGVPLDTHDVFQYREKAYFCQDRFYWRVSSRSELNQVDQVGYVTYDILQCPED

For `COC(=O)Nc1cccc(COc2ccc(C(=O)[C@@H]3CC[C@H](Cn4nnc5ccc(C(F)(F)F)cc5c4=O)[C@H]3C(=O)O)cc2)c1` (stereo in doubt) [Example 31, (+)-(1RS,2RS,5SR)-2-[4-({3-[(Methoxycarbonyl)amino]benzyl}oxy)benzoyl]-5-{[4-oxo-6-(trifluoromethyl)-1,2,3-benzotriazin-3(4H)-yl]methyl}cyclopentanecarboxylic acid], the IC50 was found to be 2100 nM against MMP-9, 79 nM at MMP-7, 830 nM against MMP-2 and 41 nM on MMP-10.
Consider `Cc1ccc2nnn(C[C@@H]3CC[C@H](C(=O)c4ccc(OCc5cccc(OC(F)(F)F)c5)cc4)[C@H]3C(=O)O)c(=O)c2c1` (racemic) [Example 109, (+/−)-(1RS,2SR,5RS)-2-[(6-Methyl-4-oxo-1,2,3-benzotriazin-3(4H)-yl)methyl]-5-(4-{[3-(trifluoromethoxy)benzyl]oxy}benzoyl)cyclopentanecarboxylic acid], for which the IC50 on MMP-9 turned out to be 150 nM; against MMP-7, 1700 nM; at MMP-2 it was 1100 nM; at MMP-10 it was 100 nM.
Consider `Cc1ccc2nnn(C[C@@H]3CC[C@H](C(=O)c4ccc(OCc5ccccc5)cc4)[C@H]3C(=O)O)c(=O)c2c1` (racemic) [Example 91, (+/−)-(1RS,2RS,5SR)-2-[4-(Benzyloxy)benzoyl]-5-[(6-methyl-4-oxo-1,2,3-benzotriazin-3(4H)-yl)methyl]cyclopentanecarboxylic acid], for which the IC50 is 21 nM against MMP-9, 190 nM against MMP-7, 100 nM on MMP-2 and 21 nM against MMP-10.
`O=C(O)[C@H]1[C@H](Cn2nnc3ccc(C(F)(F)F)cc3c2=O)CC[C@@H]1C(=O)c1ccc(OCC2CCCCC2)cc1` (racemic) [Example 40, (+/−)-(1RS,2RS,5SR)-2-[4-(Cyclohexylmethoxy)benzoyl]-5-{[4-oxo-6-(trifluoromethyl)-1,2,3-benzotriazin-3(4H)-yl]methyl}cyclopentanecarboxylic acid]: the IC50 at MMP-9 is 170 nM; against MMP-7 it was 260 nM; at MMP-2, 440 nM; against MMP-10 it was 21 nM.
Consider `O=C(O)[C@@H]1[C@@H](Cn2nnc3ccc(C(F)(F)F)cc3c2=O)CC[C@H]1C(=O)c1ccc(OCC2CCCCC2)cc1` (single isomer, unassigned) [Example 41, (+)-(1RS,2RS,5SR)-2-[4-(Cyclohexylmethoxy)benzoyl]-5-{[4-oxo-6-(trifluoromethyl)-1,2,3-benzotriazin-3(4H)-yl]methyl}cyclopentanecarboxylic acid], for which the IC50 against MMP-9 is 51 nM; on MMP-7, 68 nM; against MMP-2, 97 nM; at MMP-10, 20 nM.
As for `O=C(O)[C@@H]1[C@@H](Cn2nnc3ccc(C(F)(F)F)cc3c2=O)CC[C@H]1C(=O)c1ccc(OCCC2CCCC2)cc1` (single isomer, unassigned) [Example 55, (+)-(1RS,2RS,5SR)-2-[4-(2-Cyclopentylethoxy)benzoyl]-5-{[4-oxo-6-(trifluoromethyl)-1,2,3-benzotriazin-3(4H)-yl]methyl}cyclopentanecarboxylic acid], the IC50 against MMP-9 amounted to 940 nM; against MMP-7, 260 nM; against MMP-2, 1300 nM; on MMP-10, 50 nM.
Consider `Cc1ccc2nnn(C[C@H]3CC[C@@H](C(=O)c4ccc(OCc5cccc(C(F)(F)F)c5)cc4)[C@@H]3C(=O)O)c(=O)c2c1` (single isomer, unassigned) [Example 101, (+)-(1RS,2SR,5RS)-2-[(6-Methyl-4-oxo-1,2,3-benzotriazin-3(4H)-yl)methyl]-5-(4-{[3-(trifluoromethyl)benzyl]oxy}benzoyl)cyclopentanecarboxylic acid], for which the IC50 came to 100 nM on MMP-9, 720 nM at MMP-7, 380 nM on MMP-2 and 110 nM against MMP-10.
In the case of `Cc1ccc2nnn(C[C@H]3CC[C@@H](C(=O)c4ccc(OCc5cccc(OC(F)(F)F)c5)cc4)[C@@H]3C(=O)O)c(=O)c2c1` (single isomer, unassigned) [Example 110, (+)-(1RS,2SR,5RS)-2-[(6-Methyl-4-oxo-1,2,3-benzotriazin-3(4H)-yl)methyl]-5-(4-{[3-(trifluoromethoxy)benzyl]oxy}benzoyl)cyclopentanecarboxylic acid], the IC50 against MMP-9 turned out to be 380 nM; at MMP-7 it was 1200 nM; at MMP-2, 850 nM; at MMP-10, 130 nM.
The matching figures for `O=C(O)[C@H]1[C@H](Cn2nnc3ccc(C(F)(F)F)cc3c2=O)CC[C@@H]1C(=O)c1ccc(OCCCc2ccccc2)cc1` (racemic) [Example 39, (+/−)-(1RS,2SR,5RS)-2-{[4-Oxo-6-(trifluoromethyl)-1,2,3-benzotriazin-3(4H)-yl]methyl}-5-[4-(3-phenylpropoxy)benzoyl]cyclopentanecarboxylic acid]: 780 nM, 730 nM, 4600 nM and 170 nM.
The matching figures for `O=C(O)[C@H]1[C@H](Cn2nnc3ccc(C(F)(F)F)cc3c2=O)CC[C@@H]1C(=O)c1ccc(OCc2cccc(C(F)(F)F)c2)cc1` (racemic) [Example 18, (+/−)-(1RS,2SR,5RS)-2-{[4-Oxo-6-(trifluoromethyl)-1,2,3-benzotriazin-3(4H)-yl]methyl}-5-(4-{[3-(trifluoromethyl)benzyl]oxy}benzoyl)cyclopentanecarboxylic acid]: 940 nM, 910 nM, 2000 nM and 200 nM.
In the case of `O=C(O)[C@H]1[C@H](Cn2nnc3ccccc3c2=O)CC[C@@H]1C(=O)c1ccc(OCc2ccc(F)cc2)cc1` (racemic) [Example 1, (+/−)-(1RS,2RS,5SR)-2-{4-[(4-Fluorobenzyl)oxy]benzoyl}-5-[(4-oxo-1,2,3-benzotriazin-3(4H)-yl)methyl]cyclopentanecarboxylic acid], the IC50 amounted to 4.7 nM at MMP-9, 1100 nM on MMP-7, 9.3 nM on MMP-2 and 33 nM at MMP-10.
The matching figures for `Cc1ccc2nnn(C[C@H]3CC[C@@H](C(=O)c4ccc(OCc5ccccc5)cc4)[C@@H]3C(=O)O)c(=O)c2c1` (single isomer, unassigned) [Example 92, (+)-(1RS,2RS,5SR)-2-[4-(Benzyloxy)benzoyl]-5-[(6-methyl-4-oxo-1,2,3-benzotriazin-3(4H)-yl)methyl]cyclopentanecarboxylic acid]: 13 nM, 110 nM, 47 nM and 15 nM.
Turning to `CCCCCCOc1ccc(C(=O)[C@@H]2CC[C@H](Cn3nnc4ccc(C)cc4c3=O)[C@H]2C(=O)O)cc1` (single isomer, unassigned) [Example 121, (+)-(1RS,2RS,5SR)-2-[4-(Hexyloxy)benzoyl]-5-[(6-methyl-4-oxo-1,2,3-benzotriazin-3(4H)-yl)methyl]cyclopentanecarboxylic acid], the IC50 on MMP-9 was 57 nM; at MMP-7, 350 nM; on MMP-2, 280 nM; at MMP-10, 93 nM.
The matching figures for `O=C(O)[C@@H]1[C@@H](Cn2nnc3ccc(C(F)(F)F)cc3c2=O)CC[C@H]1C(=O)c1ccc(OCCC2CCCCC2)cc1` (single isomer, unassigned) [Example 52, (+)-(1RS,2RS,5SR)-2-[4-(2-Cyclohexylethoxy)benzoyl]-5-{[4-oxo-6-(trifluoromethyl)-1,2,3-benzotriazin-3(4H)-yl]methyl}cyclopentanecarboxylic acid]: 830 nM, 340 nM, 1600 nM and 52 nM.

In general, IC50 refers to the point on the concentration scale where inhibition reaches its midpoint. A higher IC50 goes with a need for much substance.
